ChEMBL document CHEMBL5346866, “What about the progress in the synthesis of flavonoid from 2020?” (Eur J Med Chem, 2022)

How the values were obtained:
Assay type in all cases: functional, cell-based
HCC1954 = assay: Anti-proliferative activity against human HCC1954 cells assessed as cell growth inhibition incubated for 72 hrs by CCK-8 assay; conditions: HCC1954, 72 h
SK-OV-3 = assay: Anti-proliferative activity against human SK-OV-3 cells assessed as cell growth inhibition incubated for 72 hrs by CCK-8 assay; conditions: SK-OV-3, 72 h
HeLa = assay: Anti-proliferative activity against human HeLa cells assessed as cell growth inhibition incubated for 72 hrs by CCK-8 assay
DU-145 = assay: Antiproliferative activity against human […] cells assessed as cell growth inhibition by SRB assay
PC-3 = assay: Antiproliferative activity against human PC-3 cells assessed as cell growth inhibition by SRB assay

Row | Structure (SMILES) | IC50 (HCC1954) | IC50 (SK-OV-3) | IC50 (HeLa) | IC50 (DU-145) | IC50 (PC-3)
1 | COc1ccc(-c2oc3cc(O)cc(O)c3c(=O)c2OCc2cn([C@@H]3O[C@H](COC(C)=O)[C@@H](OC(C)=O)[C@H](OC(C)=O)[C@H]3OC(C)=O)nn2)cc1O | 43.4 µM | 30.6 µM | – | – | –
2 | COc1ccc(-c2cc(=O)c3c(C)cc(OCc4cn([C@@H]5O[C@H](COC(C)=O)[C@@H](O[C@H]6O[C@H](COC(C)=O)[C@@H](OC(C)=O)[C@H](OC(C)=O)[C@H]6OC(C)=O)[C@H](OC(C)=O)[C@H]5OC(C)=O)nn4)cc3o2)cc1 | – | – | 14.7 µM | – | –
3 | C[C@@]1([N+](=O)[O-])C(=O)c2cc(F)ccc2O[C@H]1CC(=O)NC12CC3CC(CC(C3)C1)C2 | – | – | – | 0.64 µM | 0.82 µM

Now from value to molecule:

Row | IC50 (HCC1954) | IC50 (SK-OV-3) | IC50 (HeLa) | IC50 (DU-145) | IC50 (PC-3) | Structure (SMILES)
4 | – | – | – | 1.65 µM | 1.54 µM | C[C@]1([N+](=O)[O-])C(=O)c2cc(F)ccc2O[C@@H]1CC(=O)NC12CC3CC(CC(C3)C1)C2
5 | – | – | – | 1.21 µM | 0.94 µM | CC1([N+](=O)[O-])C(=O)c2cc(F)ccc2OC1CC(=O)NC12CC3CC(CC(C3)C1)C2 (racemic)
